Values quoted from earlier work, collected in US9089636B2, “Methods and devices for delivering GLP-1 and uses thereof” (VALERITAS, INC., priority 2004, dated 2015).
Like-named read-outs stand apart in the source and are kept apart here. No end group written: not given here.

Experiments:
[1] = system: rat PC12 pheochromocytoma cell line
rats [2] = conditions: for blood pressure and heart rate: centrally and peripherally administered
cloned GLP-1 receptor = cloned GLP-1 receptor (Homo sapiens, UniProt P43220)
[3] = system: Multiple islet cell lines
[4] = system: BHK fibroblasts expressing a transfected GLP-1 receptor
[5] = system: cultured fetal rat hippocampal neurons; conditions: for extent of glutamate-induced cell death: short term cultures
human subjects [6] = conditions: physiologically relevant concentrations
[7] = system: human subjects with LV dysfunction and acute MI
young and old rats = conditions: infusion for 5 days
rats [8] = conditions: ICV
rats [9] = conditions: for effect on GLP-1-induced fecal output: rat, in vivo
human volunteers = conditions: 60 minute infusion, 30 pmol/kg/h
salt-sensitive rats = conditions: 14 day treatment, high salt diet
cultured myotubes = conditions: 0.1-1 pM
human islets = conditions: 5 days
Zucker diabetic rats = conditions: 2 day infusion
lean mice = conditions: subcutaneous, 2 days
[10] = system: subjects with type 2 diabetes; conditions: following a liquid test meal
neonatal GK rat = conditions: 5 days
fetal pig islet clusters = conditions: 75-90 day gestational age
[11] = biological target: dipeptidylaminopeptidase IV (DPP-IV) (Homo sapiens, UniProt P27487)
[12] = in vivo
CNS = conditions: in vivo
hippocampal neurons = conditions: systemic administration
human subjects [13] = conditions: infusion
rat pancreatectomy model = conditions: in vivo
db/db mice [14] = system: db/db mice
[15] = system: human islet-like cell clusters; conditions: 4 days in vitro
blood brain barrier = conditions: CD1 mice
db/db mice [16] = conditions: daily for 14 days
purified rat b cells = conditions: combination of cytotoxic cytokines
[17] = after 72-hour infusion at 1.5 pmol/kg per minute
[18] = after reperfusion, before GLP-1 infusion

cloned GLP-1 receptor, sequence (P43220 24-463): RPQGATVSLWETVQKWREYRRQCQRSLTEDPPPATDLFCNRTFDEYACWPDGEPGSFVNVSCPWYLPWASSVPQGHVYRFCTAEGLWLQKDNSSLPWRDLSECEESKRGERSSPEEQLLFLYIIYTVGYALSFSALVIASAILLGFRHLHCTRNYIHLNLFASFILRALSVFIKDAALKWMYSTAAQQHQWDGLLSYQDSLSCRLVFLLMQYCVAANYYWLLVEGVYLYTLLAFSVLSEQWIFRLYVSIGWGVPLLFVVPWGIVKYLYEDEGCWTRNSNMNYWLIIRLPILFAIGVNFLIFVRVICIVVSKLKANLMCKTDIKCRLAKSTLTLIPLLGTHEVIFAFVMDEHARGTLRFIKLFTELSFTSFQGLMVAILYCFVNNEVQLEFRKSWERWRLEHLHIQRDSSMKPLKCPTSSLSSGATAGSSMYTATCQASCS
dipeptidylaminopeptidase IV (DPP-IV), sequence (P27487 whole entry, species assumed): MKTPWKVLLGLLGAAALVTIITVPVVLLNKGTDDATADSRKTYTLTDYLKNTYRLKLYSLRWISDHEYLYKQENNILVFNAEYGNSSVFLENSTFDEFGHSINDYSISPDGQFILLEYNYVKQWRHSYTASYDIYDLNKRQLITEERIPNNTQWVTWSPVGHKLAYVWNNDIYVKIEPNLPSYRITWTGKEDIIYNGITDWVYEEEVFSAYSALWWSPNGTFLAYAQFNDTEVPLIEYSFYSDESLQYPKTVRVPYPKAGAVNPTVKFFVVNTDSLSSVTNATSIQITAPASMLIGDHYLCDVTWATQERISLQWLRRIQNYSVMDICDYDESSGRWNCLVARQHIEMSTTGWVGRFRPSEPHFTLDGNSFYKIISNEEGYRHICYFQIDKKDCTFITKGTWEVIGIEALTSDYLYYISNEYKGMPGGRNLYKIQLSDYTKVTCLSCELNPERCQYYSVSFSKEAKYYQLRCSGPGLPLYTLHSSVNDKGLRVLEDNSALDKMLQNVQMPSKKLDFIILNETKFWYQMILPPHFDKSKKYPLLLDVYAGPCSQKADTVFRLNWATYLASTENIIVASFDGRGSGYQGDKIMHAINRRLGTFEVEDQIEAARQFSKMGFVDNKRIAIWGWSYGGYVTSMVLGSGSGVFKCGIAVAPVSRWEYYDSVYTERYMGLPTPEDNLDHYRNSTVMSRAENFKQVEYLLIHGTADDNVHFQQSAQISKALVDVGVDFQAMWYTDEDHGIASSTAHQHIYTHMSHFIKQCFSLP

## O=S(=O)(NCCNC/C=C/c1ccc(Br)cc1)c1cccc2cnccc12 [H-89]
[1]
  effect on the differentiation actions of GLP-1: only modest effects

## COc1cccc(-c2cc(=O)c3ccccc3o2)c1N [PD98059]
[1]
  effect on the differentiation actions of GLP-1: abrogated

## Nc1ncnc2c1ncn2[C@@H]1O[C@@H]2COP(O)(=S)O[C@H]2[C@H]1O (some centres unmarked) [Rp-cAMP, reference compound]
Min6 mouse islet cells
  effect on the anti-apoptotic effects of GLP-1: partially blocked

## CN1[C@@H]2CC[C@H]1C[C@@H](OC(=O)C(CO)c1ccccc1)C2 (some centres unmarked) [atropine]
Rats [2]; normal rats
  effect on the stimulatory effect of GLP-1 on blood pressure: prevented

## CNC1(C)C2CCC(C2)C1(C)C (centres unmarked) [mecamylamine]
Rats [2]; normal rats
  effect on the GLP-1-dependent increase in heart rate: blocked
  effect on the stimulatory effect of GLP-1 on blood pressure: prevented

## GLP-1 (9-36)amide (EGTFTSDVSSYLEGQAAKEFIAWLVKGR-NH2; UniProt P01275 100-127, looked up, fragment) [GLP-1 (9-36) amide, truncated fragment, primary metabolite of GLP-1 produced by DPP-IV]
Cloned GLP-1 receptor
  effect on the action of GLP-1 7-36 amide: antagonized

## Glucagon-like peptide-1 [GLP-1]
Muscle strips
  glycogen synthesis: stimulated
[3]
  Gene or Protein activated by GLP-1: Pdx-1 RNA and protein
[4]
  cell survival: increased
[5]
  protection against glutamate-induced apoptosis: completely protect
  extent of glutamate-induced cell death: significantly reduced
Human subjects [6]
  pentagastrin-stimulated gastric acid secretion: inhibited
RIN1046-38 cells; GLUT-1 RNA
  Gene or Protein activated by GLP-1: GLUT-1 RNA
RIN1046-38 cells; Hexokinase I RNA
  Gene or Protein activated by GLP-1: Hexokinase I RNA
RIN1046-38 cells; SNAP-25 phosphorylation
  Gene or Protein activated by GLP-1: SNAP-25 phosphorylation
[7]; [17]
  LVEF: 39+2%
  global wall motion score indexes: 1.63 ± 0.09
  regional wall motion score indexes: 2.02 ± 0.11
[7]; [18]
  LVEF: 29+2%
  global wall motion score indexes: 1.94 ± 0.11
  regional wall motion score indexes: 2.53 ± 0.08
[7]; human, in vivo
  plasma glucose and free fatty acids: significant decrease
Young and old rats
  β cell mass: increased
INS-1 cells; Akt and IRS proteins
  Gene or Protein activated by GLP-1: Akt and IRS proteins
INS-1 cells; Calcineurin and NFAT
  Gene or Protein activated by GLP-1: Calcineurin and NFAT
INS-1 cells; Glucokinase
  Gene or Protein activated by GLP-1: Glucokinase
INS-1 cells; Immediate early genes
  Gene or Protein activated by GLP-1: Immediate early genes
INS-1 cells; Kir 6.2 RNA
  Gene or Protein activated by GLP-1: Kir 6.2 RNA
Rats [8]
  food intake: dose-dependently inhibits
Human NIP cells
  insulin expression in subsets of cells: induced
Rats [9]; ICV
  fecal output: increase
Rats [2]
  blood pressure and heart rate: dose-dependently increased
Min6 mouse islet cells; in vitro
  extent of hydrogen peroxide-induced apoptosis: reduced
Human volunteers
  Rd (glucose disposal): no significant change
  decrease in Ra (endogenous glucose production): 17%
  plasma glucose: decreased
salt-sensitive rats
  development of hypertension: reduced
Cultured myotubes
  glucose incorporation into glycogen: stimulated
calpain
  calpain activity: decreased
pigs
  cephalic-induced antral motility: strongly inhibited
Human islets
  cell death: decreased
  glucose-stimulated insulin secretion: improved
AR42J cell line
  differentiation to an endocrine phenotype: promotes
Rat cardiac myocytes
  contraction amplitude: decrease
  intracellular cAMP: increased
Zucker diabetic rats
  islet size and β cell mass: increased
  percentage of apoptotic β cells: significantly reduced
Continuous 5 day subcutaneous infusion
  peak plasma level of GLP-1: 88.7 pM
Subcutaneous injection 30 minutes before meals
  peak plasma level of GLP-1: 269.4 pM
Lean mice
  islet labeling index: increased
[10]
  gastric emptying: inhibits
Neonatal GK rat
  pancreatic insulin content and total beta-cell mass: enhanced
Fetal pig islet clusters
  glucose-dependent insulin secretion: promoted
Multiple cell models
  Gene or Protein activated by GLP-1: Insulin RNA

## Val8-GLP-1(7-37)OH
[11]
  DPP-IV degradation: resistant
[12]
  optimum plasma levels: 30-200 picomoles/liter

## [Ser8]GLP-1 (HSEGTFTSDVSSYLEGQAAKEFIAWLVKGRG; also: radiolabel, position not given here; UniProt P01275 98-128, looked up, variant A8S)
CNS
  uptake into the CNS: not saturable

## [Ser(2)]exendin(1-9)
Hippocampal neurons
  kainate-induced apoptosis of hippocampal neurons: prevents

## astressin
Rats [9]
  effect on GLP-1-induced fecal output: blocked

## exendin (9-39)
Human subjects [13]
  effect on the insulinotropic and glucagonostatic effects of exogenous GLP-1: blocked
Rats [8]
  food intake: increased
Rats [9]
  effect on GLP-1-induced fecal output: blocked

## exendin-4
[4]
  cell survival: increased
[5]
  protection against glutamate-induced apoptosis: completely protect
  extent of glutamate-induced cell death: significantly reduced
ob/ob mice
  β cell proliferation: not
Human NIP cells
  insulin expression in subsets of cells: induced
mice
  β cell apoptosis induced by streptozotocin (STZ): reduced
Rat pancreatectomy model
  glucose intolerance following partial pancreatectomy: attenuates
  islet neogenesis and β cell proliferation: increases
Rats [2]
  blood pressure and heart rate: dose-dependently increased
db/db mice [14]
  β cell proliferation: increased
[15]
  Pdx-1 expression: enhance
  insulin expression: not
Blood brain barrier
  crossing of the blood brain barrier: readily crosses
db/db mice [16]
  numbers of Tunel+ apoptotic β cells: reduced
  progression to more frank diabetes: prevented
  β cell mass: increased
AR42J cell line
  differentiation to an endocrine phenotype: promotes
Capan-1
  number of cells exhibiting immunopositivity for insulin or glucagon: significant increase
Neonatal GK rat
  pancreatic insulin content and total beta-cell mass: enhanced
Purified rat b cells
  extent of apoptotic cell death: directly reduced
